Data: BindingDB's records for doi:10.3109/14756366.2012.668539 (Federal University of São Paulo, 2013)
pKi: −log10 of the molar value.

Biological target: T1, Papain (Carica papaya, UniProt P00784)
T1 sequence (P00784 whole entry): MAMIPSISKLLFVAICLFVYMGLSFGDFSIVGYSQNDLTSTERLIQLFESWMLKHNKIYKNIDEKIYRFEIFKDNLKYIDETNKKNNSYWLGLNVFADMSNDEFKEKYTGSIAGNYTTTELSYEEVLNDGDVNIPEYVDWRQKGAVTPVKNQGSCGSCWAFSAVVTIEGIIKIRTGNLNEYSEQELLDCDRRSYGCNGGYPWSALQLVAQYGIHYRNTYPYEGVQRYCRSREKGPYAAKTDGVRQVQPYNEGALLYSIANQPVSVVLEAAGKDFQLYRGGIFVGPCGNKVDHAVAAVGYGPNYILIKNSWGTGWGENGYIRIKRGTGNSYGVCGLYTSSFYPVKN
Assay: Kinetic Assay
Protocol: To characterize the type and extent inhibition of papain by fukugetin, papain (0.04 nM) was incubated with four concentrations of fukugetin (1.5, 3, 6 and 12μM). For cruzain, enzyme concentration was 12 nM and inhibitor concentrations varied from 1 μM to 10 μM. Analysis of enzyme kinetic data was carried out using the Lineweaver-Burk plot30 in Grafit 5.0 software. Hydrolytic activity was measured […], mixing fukugetin and enzymes by addition growingconcentrations of Cbz-Phe-Arg-MCA (0.5-22 μM).

Structure (SMILES): O=C1c2c(O)cc(O)cc2OC(c2ccc(O)cc2)C1c1c(O)cc(O)c2c(=O)cc(-c3ccc(O)c(O)c3)oc12 (stereo unspecified) [Fukugetin]
- pKi: 4.87
